Columns and labels:
[1] = pH value of the sweet-sour base with compound; assay type: physicochemical; settings: 10 ppm compound in sweet-sour base of inverted sugar and citric acid
[2] = Sensory experiment, trained panel, sweet base (water solution containing sucrose at 4%); assay type: in vivo, human; settings: 10 ppm compound in 4% sucrose base; twenty trained panelists
Experimental: (§1) Methodology: compounds 101 and 108 were evaluated as sweet modifiers in a sweet (water solution containing sucrose at 4%) or a sweet-sour base (mixture of inverted sugar and citric acid at 7% and 0.15%) at 10 ppm. Twenty trained panelists were asked to compare the intensity difference between reference and compound 101 or compound 108. The taste properties (such as sweet, sour) were evaluated on a scale of −5 to 5 (−5 denoted strong masking effect and 5 denoted strong enhancing effect, 0 being the intensity of reference.

[3] = Sensory experiment, trained panel, sweet-sour base (inverted sugar 7% and citric acid 0.15%); assay type: in vivo, human; settings: 10 ppm compound in sweet-sour base of inverted sugar 7% and citric acid 0.15%
Experimental: as §1

pH value of the base [1]	Structure (SMILES)	sweet intensity versus reference (scale -5 to 5) [2]	sour intensity versus reference (scale -5 to 5) [3]	sweet intensity versus reference (scale -5 to 5) [3]
without changing the pH value	COc1cc(O)c(C(=O)CCc2ccc(O)cc2)c(O)c1C [compound 101]	can increase sweet intensity	significantly increase	significantly increase
–	O=C1CC(c2ccc(O)cc2)c2c(cc(O)c(C(=O)CCc3ccc(O)cc3)c2O)O1 (centres unmarked) [compound 108]	can increase sweet intensity	–	–

Source: patent US20250098720A1, “SWEETENER COMPOSITIONS” (Firmenich SA, priority 2022, published 2025)
